The source of these data is patent US12497411B2, “Muscarinic acetylcholine receptor subtype 4 antagonists in the treatment of anemia” (COLD SPRING HARBOR LABORATORY, priority 2019, dated 2025).

The target of assay [1] is T1, human recombinant CHRM3 receptor (Homo sapiens, UniProt P20309).
T1 construct: expressed in transfected cells; host or cells: CHO cells (membranes)
Nature of the assay: Radioligand binding assay, CHRM3. The conditions noted are these: [3H]4-DAMP (0.2 nM), CHO cell membranes, 60 minutes at room temperature; read-out: Ki M3. How it is done:
(§1) PD102807 and Compounds A-K at concentrations of 1×10^−9 M, 1×10^−8 M, 1×10^−7 M, 1×10^−6 M, and 1×10^−5 M were tested in standard binding assays with radioligands and cell membranes with receptors. Compound binding was calculated as a percent inhibition of the binding of a radioactively labeled ligand specific for each target, and the Ki values were determined. For CHRM1, the binding assay was performed using [^3H]pirenzepine (2 nM) as a radioligand and membranes of CHO cells with human recombinant CHRM1 receptor. The incubation time was 60 minutes at room temperature. For CHRM2, the binding assay was performed using [^3H]AF-DX 384 (2 nM) as a radioligand and membranes of CHO cells with human recombinant CHRM2 receptor. The incubation time was also 60 minutes at room temperature. For CHRM3, the binding assay was performed using [^3H]4-DAMP (0.2 nM) as a radioligand and membranes of CHO cells with human recombinant CHRM3 receptor. The incubation time was also 60 minutes at room temperature. For CHRM4, the binding assay was performed using [^3H]4-DAMP (0.2 nM) as a radioligand and membranes of CHO cells with human recombinant CHRM4 receptor. The incubation time was also 60 minutes at room temperature. For CHRM5, the binding assay was performed using [^3H]4-DAMP (0.3 nM) as a radioligand and membranes of CHO cells with human recombinant CHRM5 receptor. The incubation time was also 60 minutes at room temperature.

The target in assay [2] is T2, human recombinant CHRM5 receptor (Homo sapiens, UniProt P08912).
T2 construct: expressed in transfected cells; host or cells: CHO cells (membranes)
T2 sequence (P08912 1-532): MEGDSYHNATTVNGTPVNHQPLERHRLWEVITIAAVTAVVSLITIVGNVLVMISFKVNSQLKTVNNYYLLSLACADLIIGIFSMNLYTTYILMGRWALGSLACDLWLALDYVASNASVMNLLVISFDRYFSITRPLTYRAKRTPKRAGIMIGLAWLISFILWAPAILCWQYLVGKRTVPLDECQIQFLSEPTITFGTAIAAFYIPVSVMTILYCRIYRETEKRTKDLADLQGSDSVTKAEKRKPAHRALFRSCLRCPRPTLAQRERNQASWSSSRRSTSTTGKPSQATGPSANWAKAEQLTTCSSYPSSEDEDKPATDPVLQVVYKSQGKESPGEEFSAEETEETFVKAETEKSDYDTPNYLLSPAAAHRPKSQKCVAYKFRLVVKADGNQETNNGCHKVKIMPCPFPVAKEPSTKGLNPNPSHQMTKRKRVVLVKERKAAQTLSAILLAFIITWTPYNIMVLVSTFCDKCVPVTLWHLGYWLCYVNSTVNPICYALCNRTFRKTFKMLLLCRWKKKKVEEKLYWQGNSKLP
Nature of the assay: Radioligand binding assay, CHRM5. Conditions: [3H]4-DAMP (0.3 nM), CHO cell membranes, 60 minutes at room temperature; read-out: Ki M5. How it is done: as §1

In assay [3] the target is T3, human recombinant CHRM2 receptor (Homo sapiens, UniProt P08172).
T3 construct: expressed in transfected cells; host or cells: CHO cells (membranes)
T3 sequence (P08172 1-466): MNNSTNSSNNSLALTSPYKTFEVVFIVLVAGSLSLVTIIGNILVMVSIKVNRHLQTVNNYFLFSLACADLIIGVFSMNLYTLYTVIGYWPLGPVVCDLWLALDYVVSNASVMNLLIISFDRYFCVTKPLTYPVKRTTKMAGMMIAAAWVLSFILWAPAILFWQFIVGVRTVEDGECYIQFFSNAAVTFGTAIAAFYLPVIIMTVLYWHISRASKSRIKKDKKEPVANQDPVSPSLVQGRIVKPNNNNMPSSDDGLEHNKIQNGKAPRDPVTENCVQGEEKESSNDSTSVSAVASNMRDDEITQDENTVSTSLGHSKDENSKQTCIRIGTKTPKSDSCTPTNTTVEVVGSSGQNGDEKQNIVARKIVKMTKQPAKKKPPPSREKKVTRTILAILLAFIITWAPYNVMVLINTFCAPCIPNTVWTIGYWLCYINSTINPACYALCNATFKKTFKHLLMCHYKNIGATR
As to the kind of experiment: Radioligand binding assay, CHRM2. The conditions noted are these: [3H]AF-DX 384 (2 nM), CHO cell membranes, 60 minutes at room temperature; read-out: Ki M2. How it is done:
as §1

Another assay concerns the target T4, CHRM4 (Homo sapiens, UniProt P08173).
T4 sequence (P08173 1-479): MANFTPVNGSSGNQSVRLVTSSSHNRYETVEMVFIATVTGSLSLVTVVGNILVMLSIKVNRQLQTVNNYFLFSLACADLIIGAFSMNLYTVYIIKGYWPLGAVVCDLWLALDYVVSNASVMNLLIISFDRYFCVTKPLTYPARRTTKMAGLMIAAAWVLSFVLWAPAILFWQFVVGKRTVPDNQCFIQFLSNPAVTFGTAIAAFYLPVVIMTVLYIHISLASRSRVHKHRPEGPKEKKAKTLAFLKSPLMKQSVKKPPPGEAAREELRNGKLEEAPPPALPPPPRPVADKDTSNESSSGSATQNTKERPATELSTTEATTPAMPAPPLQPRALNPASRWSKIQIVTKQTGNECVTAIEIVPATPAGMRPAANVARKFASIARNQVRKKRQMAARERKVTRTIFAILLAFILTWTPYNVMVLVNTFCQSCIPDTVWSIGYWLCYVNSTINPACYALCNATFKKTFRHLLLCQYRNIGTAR
Nature of the assay: Radioligand binding assay, CHRM4. Set-up: expressed in transfected cells; host or cells: CHO cells (membranes). The conditions noted are these: [3H]4-DAMP (0.2 nM), CHO cell membranes, 60 minutes at room temperature; read-out: Ki M4. How it is done: as §1

The target in assay [4] is T5, human recombinant CHRM1 receptor (Homo sapiens, UniProt P11229).
T5 construct: expressed in transfected cells; host or cells: CHO cells (membranes)
T5 sequence (P11229 1-460): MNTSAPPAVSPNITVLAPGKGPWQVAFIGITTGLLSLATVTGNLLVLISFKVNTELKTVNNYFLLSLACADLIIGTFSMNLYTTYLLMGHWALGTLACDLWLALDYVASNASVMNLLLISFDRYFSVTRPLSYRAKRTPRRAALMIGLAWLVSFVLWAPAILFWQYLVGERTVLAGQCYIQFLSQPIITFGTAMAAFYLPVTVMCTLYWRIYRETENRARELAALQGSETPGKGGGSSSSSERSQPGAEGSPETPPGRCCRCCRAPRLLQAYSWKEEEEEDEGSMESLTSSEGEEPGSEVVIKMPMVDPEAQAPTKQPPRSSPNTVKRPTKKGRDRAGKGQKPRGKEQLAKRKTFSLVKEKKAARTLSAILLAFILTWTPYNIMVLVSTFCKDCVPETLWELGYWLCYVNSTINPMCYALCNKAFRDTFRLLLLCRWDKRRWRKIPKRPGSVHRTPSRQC
Nature of the assay: Radioligand binding assay, CHRM1. The conditions noted are these: [3H]pirenzepine (2 nM), CHO cell membranes, 60 minutes at room temperature; read-out: Ki M1. How it is done:
as §1

Assay [5] has as its system PHZ induced hemolytic anemia in C57bl/6 mice. As to the kind of experiment: PHZ induced hemolytic anemia mouse model, CBC. Format: in vivo. Conditions: 60 mg/kg phenylhydrazine. How it is done: Animal experiments were conducted in the Cold Spring Harbor Laboratory Animal Shared Resource in accordance with Institutional Animal Care and Use Committee-approved procedures. 4-6 weeks old C57bl/6 mice, purchased from Jackson Laboratory and randomly distributed into compound and control treatment groups, were given through oral delivery of PCS1055 (50 mg/kg or 100 mg/kg) twice per day or PD102807 (50 mg/kg or 100 mg/kg) once per day everyday for 3 days. On day 3, mice were intraperitoneally injected with 60 mg/kg PHZ. Mice were then given through oral delivery of PD102807 (50 mg/kg or 100 mg/kg) once per day every day for 2 days. Peripheral blood samples were collected retro-orbitally on day 6 using heparinized capillary tubes in blood collection tubes with K2-EDTA. CBC was performed using Hemavet 950. […] C57bl/6 mice were injected with 60 mg/kg phenylhydrazine to induce hemolysis. Mice were delivered with either vehicle control or Compound A or B (30 mg/kg or 100 mg/kg). Peripheral blood samples were collected retro-orbitally using heparinized capillary tubes into blood collection tubes with K2-EDTA. Complete blood counting was performed using Hemavet 950. Hematocrit (HCT), red blood cell (RBC) and hemoglobin (Hb) values are shown. […] C57bl/6 mice were injected with 60 mg/kg phenylhydrazine to induce hemolysis. Mice were delivered with subcutaneous injection with either vehicle control or Compound B (1.5 mg/kg, 3 mg/kg, or 5 mg/kg) or I (0.5 mg/kg, 0.7 mg/kg, or 1 mg/kg). Peripheral blood samples were collected retro-orbitally using heparinized capillary tubes into blood collection tubes with K2-EDTA. Complete blood counting was performed using Hemavet 950. Hematocrit (HCT), red blood cell (RBC) and hemoglobin (Hb) values are shown.

T1 sequence (P20309 whole entry): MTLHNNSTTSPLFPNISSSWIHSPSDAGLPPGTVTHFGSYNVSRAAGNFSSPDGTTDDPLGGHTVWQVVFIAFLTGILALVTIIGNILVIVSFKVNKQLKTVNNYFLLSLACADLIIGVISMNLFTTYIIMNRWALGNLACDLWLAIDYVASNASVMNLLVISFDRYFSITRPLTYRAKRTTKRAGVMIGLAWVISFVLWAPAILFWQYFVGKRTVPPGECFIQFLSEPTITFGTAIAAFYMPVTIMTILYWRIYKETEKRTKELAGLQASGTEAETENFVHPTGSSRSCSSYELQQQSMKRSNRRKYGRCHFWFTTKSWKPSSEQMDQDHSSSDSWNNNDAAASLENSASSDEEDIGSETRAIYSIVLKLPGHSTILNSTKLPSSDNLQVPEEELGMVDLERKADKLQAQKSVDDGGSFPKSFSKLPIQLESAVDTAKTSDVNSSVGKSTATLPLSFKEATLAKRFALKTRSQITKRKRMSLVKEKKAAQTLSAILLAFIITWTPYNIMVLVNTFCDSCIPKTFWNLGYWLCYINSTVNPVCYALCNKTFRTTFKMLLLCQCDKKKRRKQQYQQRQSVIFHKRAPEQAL

The Ki is the equilibrium dissociation constant of an inhibitor or competing ligand from its target. As for `CCOC(=O)c1c(C)n(C)c2cc(C[N+]3(C)CCc4cc(OC)ccc4C3)c(OC)cc12` (centres unmarked) [Compound K], the Ki in assay [1] came to 0.4 µM; in assay [2], 0.98 µM; in assay [3], 0.1 µM; at CHRM4, 0.054 µM; in assay [4] it was 0.054 µM.

`CCOC(=O)c1c(C)n(C)c2ccc3c(c12)C[N+]1(C)CCc2cc(OC)ccc2C1O3` (single isomer, unassigned) [Compound I, 1-(ethoxycarbonyl)-9-methoxy-2,3,13-trimethyl-3,6a,11,12,13,14-hexahydroindolo[4′,5′:5,6][1,3]oxazino[2,3-a]isoquinolin-13-ium Iodide]: the Ki in assay [2] was 10 µM; in assay [3] it was 1.7 µM; on CHRM4 it was 0.74 µM; in assay [4], 8.5 µM. The “treatment of anemia in vivo (HCT, RBC, Hb)” value in assay [5] (subcutaneous injection, B 1.5, 3 or 5 mg/kg, I 0.5, 0.7 or 1 mg/kg) was “treat anemia in vivo”.

Consider `CCOC(=O)c1c(C)[nH]c2ccc3c(c12)C[N+]1(C)CCc2cc(OC)ccc2C1O3` (single isomer, unassigned) [Compound A, 1-(ethoxycarbonyl)-9-methoxy-2,13-dimethyl-3,6a,11,12,13,14-hexahydroindolo[4′,5′:5,6][1,3]oxazino[2,3-a]isoquinolin-13-ium Iodide], for which the values for the Ki (in assay [2]; in assay [3]; at CHRM4) were 3.5 µM, 2.2 µM and 1.8 µM, respectively. Further, in assay [5] (30 mg/kg or 100 mg/kg, C57bl/6 mice), the “treatment of anemia in vivo (HCT, RBC, Hb)” value is “treat anemia in vivo”.
